Measured values as given in ChEMBL document CHEMBL1149823, “Identification of genotype-correlated sensitivity to selective kinase inhibitors by using high-throughput tumor cell line profiling” (Proc Natl Acad Sci U S A, 2007).

Columns and labels:
[1] = molecular target: Non-receptor tyrosine-protein kinase TYK2 (Homo sapiens, UniProt P29597); assay: Inhibition of Tyk2 by cellular assay
[2] = molecular target: Macrophage-stimulating protein receptor (Homo sapiens, UniProt Q04912)
[3] = molecular target: Fibroblast growth factor receptor 1 (Homo sapiens, UniProt P11362)
Sequence of Fibroblast growth factor receptor 1 (P11362 whole entry): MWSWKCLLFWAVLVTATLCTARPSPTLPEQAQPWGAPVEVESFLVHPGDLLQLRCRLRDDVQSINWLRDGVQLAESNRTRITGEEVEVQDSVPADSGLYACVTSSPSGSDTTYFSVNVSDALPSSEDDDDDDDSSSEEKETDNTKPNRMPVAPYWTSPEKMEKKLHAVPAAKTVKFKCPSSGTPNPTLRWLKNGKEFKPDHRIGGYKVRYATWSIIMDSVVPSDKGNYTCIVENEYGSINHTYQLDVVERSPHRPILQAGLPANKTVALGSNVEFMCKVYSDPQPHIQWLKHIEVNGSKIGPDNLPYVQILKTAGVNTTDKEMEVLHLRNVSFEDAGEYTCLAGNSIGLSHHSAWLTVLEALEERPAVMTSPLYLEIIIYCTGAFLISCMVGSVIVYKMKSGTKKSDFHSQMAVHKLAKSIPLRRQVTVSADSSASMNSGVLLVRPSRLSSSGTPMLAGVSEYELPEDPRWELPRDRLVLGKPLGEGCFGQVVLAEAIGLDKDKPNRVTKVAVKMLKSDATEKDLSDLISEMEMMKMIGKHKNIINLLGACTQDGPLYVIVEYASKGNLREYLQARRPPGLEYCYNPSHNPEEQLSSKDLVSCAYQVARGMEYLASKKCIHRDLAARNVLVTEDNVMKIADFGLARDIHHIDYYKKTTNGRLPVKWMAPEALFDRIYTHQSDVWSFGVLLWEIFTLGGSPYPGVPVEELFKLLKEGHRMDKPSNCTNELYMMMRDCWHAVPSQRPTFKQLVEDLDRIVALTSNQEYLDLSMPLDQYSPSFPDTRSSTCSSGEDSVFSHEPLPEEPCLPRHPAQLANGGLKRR
Description: Inhibition of FGFR1 by cellular assay

[4] = molecular target: Proto-oncogene tyrosine-protein kinase Src (Homo sapiens, UniProt P12931); assay: Inhibition of Src by cellular assay; type: functional
Angiopoietin-1 receptor = Angiopoietin-1 receptor (Homo sapiens, UniProt Q02763)
Description: Inhibition of Tie2 by cellular assay

[5] = molecular target: Mast/stem cell growth factor receptor Kit (Homo sapiens, UniProt P10721)
Sequence of Mast/stem cell growth factor receptor Kit (P10721 whole entry): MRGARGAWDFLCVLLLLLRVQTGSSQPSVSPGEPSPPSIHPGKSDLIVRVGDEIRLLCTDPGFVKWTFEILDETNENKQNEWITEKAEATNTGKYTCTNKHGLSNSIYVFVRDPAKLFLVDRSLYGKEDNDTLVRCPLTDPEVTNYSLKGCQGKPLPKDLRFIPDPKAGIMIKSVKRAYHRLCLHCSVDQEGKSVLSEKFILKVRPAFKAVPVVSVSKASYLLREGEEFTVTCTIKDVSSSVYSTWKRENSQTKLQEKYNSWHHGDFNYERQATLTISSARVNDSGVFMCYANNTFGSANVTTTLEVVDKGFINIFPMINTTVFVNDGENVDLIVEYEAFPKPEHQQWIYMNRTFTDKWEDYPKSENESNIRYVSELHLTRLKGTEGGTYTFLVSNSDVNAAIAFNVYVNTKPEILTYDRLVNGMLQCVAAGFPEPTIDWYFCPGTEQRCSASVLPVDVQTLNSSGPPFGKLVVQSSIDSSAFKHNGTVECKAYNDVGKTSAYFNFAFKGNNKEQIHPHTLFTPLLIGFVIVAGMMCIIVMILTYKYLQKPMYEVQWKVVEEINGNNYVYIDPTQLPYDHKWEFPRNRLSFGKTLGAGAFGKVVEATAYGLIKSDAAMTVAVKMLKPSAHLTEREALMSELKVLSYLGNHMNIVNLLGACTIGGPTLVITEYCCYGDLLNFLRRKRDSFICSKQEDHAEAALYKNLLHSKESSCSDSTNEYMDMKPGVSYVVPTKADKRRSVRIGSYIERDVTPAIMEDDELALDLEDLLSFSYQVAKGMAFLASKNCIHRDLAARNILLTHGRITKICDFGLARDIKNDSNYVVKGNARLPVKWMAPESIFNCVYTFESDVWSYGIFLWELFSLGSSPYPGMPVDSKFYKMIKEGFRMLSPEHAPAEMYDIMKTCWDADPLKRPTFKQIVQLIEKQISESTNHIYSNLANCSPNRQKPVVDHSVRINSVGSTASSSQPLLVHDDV
Description: Inhibition of c-Kit by cellular assay

[6] = molecular target: ALK tyrosine kinase receptor (Homo sapiens, UniProt Q9UM73)
Description: Inhibition of ALK by cellular assay

[7] = molecular target: Vascular endothelial growth factor receptor 1 (Homo sapiens, UniProt P17948)
Description: Inhibition of Flt1 by cellular assay

[8] = molecular target: Fibroblast growth factor receptor 3 (Homo sapiens, UniProt P22607)
[9] = molecular target: Hepatocyte growth factor receptor (Homo sapiens, UniProt P08581); assay: Inhibition of Met by cellular assay
[10] = molecular target: Platelet-derived growth factor receptor alpha (Homo sapiens, UniProt P16234)
Description: Inhibition of PDGFRalpha by cellular assay

[11] = molecular target: Tyrosine-protein kinase Lck (Homo sapiens, UniProt P06239)
Sequence of Tyrosine-protein kinase Lck (P06239 whole entry): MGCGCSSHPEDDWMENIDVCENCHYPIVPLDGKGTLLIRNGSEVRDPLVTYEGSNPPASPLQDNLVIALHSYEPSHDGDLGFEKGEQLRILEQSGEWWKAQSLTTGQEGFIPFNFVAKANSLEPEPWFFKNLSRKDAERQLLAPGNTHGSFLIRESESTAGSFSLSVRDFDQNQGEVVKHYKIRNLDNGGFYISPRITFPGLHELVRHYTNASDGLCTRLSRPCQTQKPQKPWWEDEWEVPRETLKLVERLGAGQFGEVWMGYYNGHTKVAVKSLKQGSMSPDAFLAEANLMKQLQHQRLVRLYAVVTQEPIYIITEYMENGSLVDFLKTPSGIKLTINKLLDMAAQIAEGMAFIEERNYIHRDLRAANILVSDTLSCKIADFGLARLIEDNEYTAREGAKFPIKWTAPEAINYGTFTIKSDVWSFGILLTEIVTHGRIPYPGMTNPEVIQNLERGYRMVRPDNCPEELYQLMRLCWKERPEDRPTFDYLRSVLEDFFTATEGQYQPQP
Description: Inhibition of Lck by cellular assay

Ephrin type-B receptor 4 = Ephrin type-B receptor 4 (Homo sapiens, UniProt P54760); assay: Inhibition of EphB4 by cellular assay
Ephrin type-A receptor 3 = Ephrin type-A receptor 3 (Homo sapiens, UniProt P29320); assay: Inhibition of EphA3 by cellular assay
[12] = molecular target: Platelet-derived growth factor receptor beta (Homo sapiens, UniProt P09619)
Description: Inhibition of PDGFRbeta by cellular assay

[13] = molecular target: Proto-oncogene tyrosine-protein kinase receptor Ret (Homo sapiens, UniProt P07949)
Description: Inhibition of Ret by cellular assay

[14] = molecular target: Receptor-type tyrosine-protein kinase FLT3 (Homo sapiens, UniProt P36888)
Description: Inhibition of FLT3 by cellular assay

[15] = molecular target: High affinity nerve growth factor receptor (Homo sapiens, UniProt P04629)
Insulin receptor = Insulin receptor (Homo sapiens, UniProt P06213)
Sequence of Insulin receptor (P06213 28-758 limits assumed): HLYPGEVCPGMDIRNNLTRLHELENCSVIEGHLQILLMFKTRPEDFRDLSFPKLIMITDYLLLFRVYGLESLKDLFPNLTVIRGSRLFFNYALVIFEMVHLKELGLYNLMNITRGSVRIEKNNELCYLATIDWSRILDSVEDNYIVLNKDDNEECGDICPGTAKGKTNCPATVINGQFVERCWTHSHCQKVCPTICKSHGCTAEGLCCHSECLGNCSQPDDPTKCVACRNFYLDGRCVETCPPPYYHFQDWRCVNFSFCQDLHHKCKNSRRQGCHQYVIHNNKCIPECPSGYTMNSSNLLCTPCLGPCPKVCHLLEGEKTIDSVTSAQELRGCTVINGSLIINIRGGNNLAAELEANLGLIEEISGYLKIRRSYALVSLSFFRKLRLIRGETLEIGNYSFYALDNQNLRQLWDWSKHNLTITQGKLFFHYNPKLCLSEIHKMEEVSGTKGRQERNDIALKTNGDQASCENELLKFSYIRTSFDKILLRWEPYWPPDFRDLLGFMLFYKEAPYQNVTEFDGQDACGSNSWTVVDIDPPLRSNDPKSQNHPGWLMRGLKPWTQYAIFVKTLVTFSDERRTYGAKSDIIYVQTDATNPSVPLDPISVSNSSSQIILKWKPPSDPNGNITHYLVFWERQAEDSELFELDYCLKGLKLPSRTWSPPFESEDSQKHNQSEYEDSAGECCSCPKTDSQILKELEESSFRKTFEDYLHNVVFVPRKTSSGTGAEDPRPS
Sequence of Insulin receptor (P06213 763-1382 limits assumed): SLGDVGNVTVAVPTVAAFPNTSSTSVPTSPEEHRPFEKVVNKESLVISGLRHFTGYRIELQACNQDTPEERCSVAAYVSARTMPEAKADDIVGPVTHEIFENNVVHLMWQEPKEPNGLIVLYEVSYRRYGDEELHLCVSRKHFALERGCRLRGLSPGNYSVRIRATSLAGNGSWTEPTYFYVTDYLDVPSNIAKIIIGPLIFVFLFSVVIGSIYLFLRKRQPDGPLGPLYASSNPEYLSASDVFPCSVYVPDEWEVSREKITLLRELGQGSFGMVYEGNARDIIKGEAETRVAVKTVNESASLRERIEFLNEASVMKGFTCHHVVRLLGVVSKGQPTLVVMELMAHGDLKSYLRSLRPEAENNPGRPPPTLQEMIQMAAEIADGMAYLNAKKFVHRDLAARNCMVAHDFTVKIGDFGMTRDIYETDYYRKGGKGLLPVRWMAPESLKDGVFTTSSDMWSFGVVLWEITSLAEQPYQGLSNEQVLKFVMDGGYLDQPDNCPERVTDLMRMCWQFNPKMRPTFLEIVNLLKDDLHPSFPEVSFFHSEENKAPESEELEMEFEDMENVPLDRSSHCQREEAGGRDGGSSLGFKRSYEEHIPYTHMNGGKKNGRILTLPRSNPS
Description: Inhibition of InsR by cellular assay

[16] = molecular target: Tyrosine-protein kinase ZAP-70 (Homo sapiens, UniProt P43403); assay: Inhibition of ZAP70 by cellular assay
[17] = molecular target: T1, Vascular endothelial growth factor receptor 2 (Homo sapiens, UniProt P35968)
T1 sequence (P35968 whole entry): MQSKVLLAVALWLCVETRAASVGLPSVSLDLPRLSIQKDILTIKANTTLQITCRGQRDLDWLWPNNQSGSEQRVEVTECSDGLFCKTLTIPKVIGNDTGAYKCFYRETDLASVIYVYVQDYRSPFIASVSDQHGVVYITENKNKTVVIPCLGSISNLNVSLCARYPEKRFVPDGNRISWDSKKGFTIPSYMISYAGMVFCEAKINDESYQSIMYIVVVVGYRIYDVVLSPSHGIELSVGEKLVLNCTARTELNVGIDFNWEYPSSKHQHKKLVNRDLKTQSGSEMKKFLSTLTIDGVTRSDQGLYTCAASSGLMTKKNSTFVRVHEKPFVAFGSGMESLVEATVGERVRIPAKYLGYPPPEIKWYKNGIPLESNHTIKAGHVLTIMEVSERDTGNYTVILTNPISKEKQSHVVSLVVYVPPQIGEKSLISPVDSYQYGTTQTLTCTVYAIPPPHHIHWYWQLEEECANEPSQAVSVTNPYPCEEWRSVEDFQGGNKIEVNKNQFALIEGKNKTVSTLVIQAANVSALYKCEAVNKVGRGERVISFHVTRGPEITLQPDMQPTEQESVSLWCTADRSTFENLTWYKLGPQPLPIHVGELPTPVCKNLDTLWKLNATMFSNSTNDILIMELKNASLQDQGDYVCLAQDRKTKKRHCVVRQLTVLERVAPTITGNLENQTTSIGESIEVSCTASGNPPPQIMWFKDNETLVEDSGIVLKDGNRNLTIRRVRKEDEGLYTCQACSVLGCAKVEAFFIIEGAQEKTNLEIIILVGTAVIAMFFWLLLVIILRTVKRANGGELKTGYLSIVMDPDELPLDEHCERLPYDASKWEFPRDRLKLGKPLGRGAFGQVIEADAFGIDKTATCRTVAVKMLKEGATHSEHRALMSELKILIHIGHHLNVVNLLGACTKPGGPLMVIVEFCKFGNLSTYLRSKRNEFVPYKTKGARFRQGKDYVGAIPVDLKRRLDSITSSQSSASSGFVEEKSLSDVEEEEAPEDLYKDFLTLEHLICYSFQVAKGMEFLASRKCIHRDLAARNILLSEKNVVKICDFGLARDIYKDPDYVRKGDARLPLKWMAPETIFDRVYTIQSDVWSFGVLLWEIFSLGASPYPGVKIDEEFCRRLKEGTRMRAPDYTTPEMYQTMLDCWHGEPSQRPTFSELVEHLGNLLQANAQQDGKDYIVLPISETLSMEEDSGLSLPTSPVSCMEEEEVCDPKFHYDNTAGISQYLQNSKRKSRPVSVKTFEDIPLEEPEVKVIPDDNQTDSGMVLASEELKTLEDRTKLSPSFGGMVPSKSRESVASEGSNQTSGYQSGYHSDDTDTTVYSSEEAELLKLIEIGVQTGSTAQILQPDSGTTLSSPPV
Description: Inhibition of KDR by cellular assay

SNU1 = assay: Cytotoxicity against human SNU1 cells assessed as fraction of viable cells after 72 hrs relative to control; type: functional
IMR-90 = assay: Cytotoxicity against human IMR90 cells assessed as fraction of viable cells after 72 hrs relative to control; type: functional
SNU-5 = assay: Cytotoxicity against human SNU5 cells assessed as fraction of viable cells after 72 hrs relative to control; type: functional
[18] = Cytotoxicity against human G-292 Clone A141B1 cells assessed as fraction of viable cells after 72 hrs relative to control; type: functional
[19] = Cytotoxicity against human Hs 707(A).T cells assessed as fraction of viable cells after 72 hrs relative to control; type: functional
MG-63 = assay: Cytotoxicity against human MG63 cells assessed as fraction of viable cells after 72 hrs relative to control; type: functional
[20] = Inhibition of PDGF
[21] = molecular target: T1, Vascular endothelial growth factor receptor 2; remark: listed apart in the source
Description: Inhibition of VEGFR2 by cellular assay

[22] = Inhibition of Mek

Description for cells: Inhibition of Bcr-abl by cellular assay

With `Cc1ccc(NC(=O)c2cccc(C(F)(F)F)c2)cc1N1Cc2cnc(N)nc2N(C)C1=O` the EC50 [1] was over 2000 nM, the EC50 [2] was over 2000 nM and the EC50 [3] was 80 nM. For the same compound, the EC50 [4] was 13 nM, the EC50 (Angiopoietin-1 receptor) was 200 nM and the EC50 [5] was 4 nM. The EC50 [6] was over 2000 nM, the EC50 [7] was 236 nM and the IC50 [8] was 13 nM. It also gave an EC50 [9] of over 2000 nM, an EC50 [10] of 4 nM and an EC50 (cells) of 3 nM. For the same compound, the EC50 [11] was 5 nM, the EC50 (Ephrin type-B receptor 4) was 4 nM and the EC50 (Ephrin type-A receptor 3) was 2 nM. For the same compound, the EC50 [12] was 6 nM, the EC50 [13] was 77 nM and the EC50 [14] was over 2000 nM. The EC50 [15] was over 2000 nM, the EC50 (Insulin receptor) was over 2000 nM and the EC50 [16] was over 2000 nM. It also gave an EC50 [17] of 22 nM.

`CC#CC(=O)Nc1ccc2ncnc(Nc3cccc(Br)c3)c2c1` gave an Activity (SNU1) of 1.135, an Activity (IMR-90) of 0.854 and an Activity (SNU-5) of 1.244. It also gave an Activity [18] of 1.024, an Activity [19] of 1.31 and an Activity (MG-63) of 0.97.

With `CCN(CC)CCCCNc1ncc2cc(-c3cc(OC)cc(OC)c3)c(NC(=O)NC(C)(C)C)nc2n1` [PD-173074] the IC50 [20] was 19 µM, the EC50 [21] was 250 nM and the IC50 [22] was over 50 µM.
